The values that follow are results of earlier work, collected in patent publication US6875451B2, “Compositions and methods for the treatment of primary and metastatic neoplastic diseases using arsenic compounds” (PolaRx Biopharmaceuticals Inc., priority 1997, dated 2005).

This data set concerns cell lines representative of chronic B-cell leukemia. To be noted: cited from earlier work.

In the case of `Nc1nc(N)nc(Nc2ccc([As]3SCC(CO)S3)cc2)n1` (stereo not shown) [melarsoprol], the apoptosis entry is “induce apoptosis”.
